The values below come from patent publication US5698710A, “Tachykinins antagonists” (A. Menarini Industrie Farmaceutiche Riunite S.r.l., priority 1994, dated 1997).

The target of the first experiment is T1, NK1 receptors (Homo sapiens, UniProt P25103).
T1 construct: endogenous in cells; host or cells: IM9 cells (intact)
T1 sequence (P25103 whole entry): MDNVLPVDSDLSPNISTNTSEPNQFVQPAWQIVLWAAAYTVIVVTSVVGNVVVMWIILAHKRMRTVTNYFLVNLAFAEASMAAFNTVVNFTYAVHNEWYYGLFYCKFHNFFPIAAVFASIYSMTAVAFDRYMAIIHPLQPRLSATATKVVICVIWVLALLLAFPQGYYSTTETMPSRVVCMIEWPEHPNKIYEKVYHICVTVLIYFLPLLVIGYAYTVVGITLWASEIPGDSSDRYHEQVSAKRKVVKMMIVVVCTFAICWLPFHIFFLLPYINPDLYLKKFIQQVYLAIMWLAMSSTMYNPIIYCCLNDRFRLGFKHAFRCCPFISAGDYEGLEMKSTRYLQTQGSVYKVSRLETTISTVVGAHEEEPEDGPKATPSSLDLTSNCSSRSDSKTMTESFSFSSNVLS
The experiment can be described thus: [^3 H]SP Binding Assay in IM9 Cell Line (competition). The note with it: intact IM9 cells; 0.3 nM [^3 H]SP; 60' at room temperature; pH 7.5. As for the experimental part:
The evaluation of the antagonist acivity of NK1 receptors was performed with binding and functional tests.
The assay was carried out on intact cells as described by Payan et al. (1984). The cells were washed with buffer A at pH 7.5 containing (in mM) Tris-HCl 50, NaCl 150 and 0.02% BSA, thereafter were resuspended in a dosage buffer (buffer A added with protease inhibitors), concentration 1×10^7 cells/ml. […] The non-specific binding was calculated in the presence of […] of non-radioactive SP. The dosage mixture was poured in test tubes for microcentrifugation which were preadsorbed in a solution of BSA 0.5% for at least 3 hours. […] The affinity was measured as pKi.
In the case of `CN(Cc1ccccc1)C(=O)C(Cc1ccc2ccccc2c1)NC(=O)C1(NC(=O)c2c[nH]c3ccccc23)CCC(O)CC1` (stereo not drawn) [xviii, N-[N(1(H)indol-3-yl-carbonyl)-1-amino-cis-4-hydrohy-cyclohexancarbonyl]-2-(2-naphthyl)alanine-N-methyl-N-benzylamide], the “Affinity (pKi) in the IM9 binding test” value stood at 8.3.

As for `COCCOCOC1CCC(NC(=O)c2c[nH]c3ccccc23)(C(=O)NC(Cc2ccccc2)C(=O)N(C)Cc2ccccc2)CC1` (stereo not drawn) [xxv, N-[N(1(H)indol-3-yl-carbonyl)-1-amino-cis-4-methoxyethoxymethoxyl-cyclohexancarbonyl]-phenylalanine-N-methyl-N-benzylamide], the “Affinity (pKi) in the IM9 binding test” value came to 7.6.

The experiment is the same for the next values; noted with them: read-out: Affinity (pKi) in the IM9 binding test (converted).
As for `CN(Cc1ccccc1)C(=O)[C@H](Cc1ccc2ccccc2c1)NC(=O)C1(NC(=O)c2c[nH]c3ccccc23)CCCCC1` [Example, N^α [N-(1(H)indol-3-yl-carbonyl)-1-amino-cyclohexan-carbonyl]-L-2-naphthylalanine-N-methyl-N-benzylamide], the Ki is 1 nM.

Regarding `COc1ccc(CC(NC(=O)C2(NC(=O)c3c[nH]c4ccccc34)CCCCC2)C(=O)N(C)Cc2ccccc2)cc1` (centres unmarked) [N-[N(1(H)indol-3-yl-carbonyl)-1-amino-cyclohexancarbonyl]-4-methoxyphenylalanine-N-methyl-N-benzylamide], the Ki was 3.98 nM.

For the molecule `CN(Cc1ccccc1)C(=O)C(Cc1ccc([N+](=O)[O-])cc1)NC(=O)C1(NC(=O)c2c[nH]c3ccccc23)CCCCC1` (centres unmarked) [N-[N(1(H)indol-3-yl-carbonyl)-1-amino-cyclohexancarbonyl]-4-nitrophenylalanine-N-methyl-N-benzylamide], the Ki is 20 nM.

Turning to `CN(Cc1ccccc1)C(=O)C(Cc1ccccc1)NC(=O)C1(NC(=O)c2c[nH]c3ccccc23)CCCCC1` (centres unmarked) [N-[N(1(H)indol-3-yl-carbonyl)-1-amino-cyclohexancarbonyl]-phenylalanine-N-methyl-N-benzylamide], the Ki is 178 nM.

In the case of `CN(Cc1ccccc1)C(=O)C(Cc1ccc(O)cc1)NC(=O)C1(NC(=O)c2c[nH]c3ccccc23)CCCCC1` (centres unmarked) [N-[N(1(H)indol-3-yl-carbonyl)-1-amino-cyclohexancarbonyl]-tyrosine-N-methyl-N-benzylamide], the Ki is 20 nM.

Take `CN(Cc1ccccc1)C(=O)C(Cc1ccc2ccccc2c1)NC(=O)C1(NC(=O)c2c[nH]c3ccccc23)CCCC1` (centres unmarked) [N-[N(1(H)indol-3-yl-carbonyl)-1-amino-cyclopentancarbonyl]-2-(2-naphthyl)alanine-N-methyl-N-benzylamide]: the Ki was 2.51 nM.

Regarding `COc1ccc(CC(NC(=O)C2(NC(=O)c3c[nH]c4ccccc34)CCCC2)C(=O)N(C)Cc2ccccc2)cc1` (centres unmarked) [N-[N(1(H)indol-3-yl-carbonyl)-1-amino-cyclopentancarbonyl]-4-methyoxyphenylalanine-N-methyl-N-benzylamide], the Ki was 794 nM.

For the molecule `CN(Cc1ccccc1)C(=O)C(Cc1ccccc1)NC(=O)C1(NC(=O)c2c[nH]c3ccccc23)CCCC1` (centres unmarked) [N-[N(1(H)indol-3-yl-carbonyl)-1-amino-cyclopentancarbonyl]-phenylalanine-N-methyl-N-benzylamide], the Ki was 158 nM.

On to `CN(Cc1ccccc1)C(=O)C(Cc1ccc2ccccc2c1)NC(=O)C1(NC(=O)c2c[nH]c3ccccc23)CCNCC1` (centres unmarked) [N-[N(1(H)indol-3-yl-carbonyl)-4-amino-piperidin-4-carbonyl]-2-(2-naphthyl)alanine-N-methyl-N-benzylamide], for which the Ki is 12.6 nM.

As for `CN(Cc1ccccc1)C(=O)C(Cc1ccc2ccccc2c1)NC(=O)C1(NC(=O)c2c[nH]c3ccccc23)CCSCC1` (centres unmarked) [N-[N(1(H)indol-3-yl-carbonyl)-4-amino-tetrahydrothiopyran-4-carbonyl]-2-(2-naphthyl)alanine-N-methyl-N-benzylamide], the Ki was 5.01 nM.

As for `CN(Cc1ccccc1)C(=O)C(Cc1ccc2ccccc2c1)NC(=O)C1(NC(=O)c2cn(C)c3ccccc23)CCCCC1` (centres unmarked) [N-[N(1(methyl)indol-3-yl-carbonyl)-1-amino-cyclohexancarbonyl]-2-)2-naphthyl)alanine-N-methyl-N-benzylamide], the Ki is 15.8 nM.

On to `CN(Cc1ccccc1)C(=O)C(Cc1ccc2ccccc2c1)NC(=O)C1(NC(=O)c2ccc(Cl)c(Cl)c2)CCCCC1` (centres unmarked) [N-[N(3,4-dichloro-benzoyl)-1-amino-cyclohexancarbonyl]-2-(2-naphthyl)alanine-N-methyl-N-benzylamide], for which the Ki was 7.94 nM.

Regarding `CN(Cc1ccccc1)C(=O)C(Cc1ccc2ccccc2c1)NC(=O)C1(NC(=O)c2ccc(Cl)cc2)CCCCC1` (centres unmarked) [N-[N(4-chloro-benzoyl)-1-amino-cyclohexancarbonyl]-2-(2-naphthyl)alanine-N-methyl-N-benzylamide], the Ki was 10 nM.

Turning to `COc1ccc(C(=O)NC2(C(=O)NC(Cc3ccc4ccccc4c3)C(=O)N(C)Cc3ccccc3)CCCCC2)cc1` (centres unmarked) [N-[N(4-methoxy-benzoyl)-1-amino-cyclohexancarbonyl]-2-(2-naphthyl)alanine-N-methyl-N-benzylamide], the Ki is 20 nM.

Take `CN(Cc1ccccc1)C(=O)C(Cc1ccc2ccccc2c1)NC(=O)C1(NC(=O)c2ccc([N+](=O)[O-])cc2)CCCCC1` (centres unmarked) [N-[N(4-nitro-benzoyl)-1-amino-cyclohexancarbonyl]-2-(2-naphthyl)alanine-N-methyl-N-benzylamide]: the Ki was 5.01 nM.

On to `CN(Cc1ccccc1)C(=O)C(Cc1ccc2ccccc2c1)NC(=O)C1(NC(=O)c2cc3ccccc3o2)CCCCC1` (centres unmarked) [N-[N(benzofuran-2-yl-carbonyl)-1-aminocyclohexancarbonyl]-2-(2-naphthyl)alanine-N-methyl-N-benzylamide], for which the Ki is 44.7 nM.

Turning to `CN(Cc1ccccc1)C(=O)C(Cc1ccc2ccccc2c1)NC(=O)C1(NC(=O)c2ccccc2)CCCCC1` (centres unmarked) [N-[N(benzoyl)-1-amino-cyclohexancarbonyl]-2-(2-naphthyl)alanine-N-methyl-N-benzylamide], the Ki is 15.8 nM.

As for `O=C(Cc1ccccc1)NC(Cc1ccc2ccccc2c1)NC(=O)C1(NC(=O)c2c[nH]c3ccccc23)CCCCC1` (centres unmarked) [ii, 1-[N(1(H)indol-3-yl-carbonyl)-1-amino-cyclohexancarbonyl]-amino-1[N-(2-phenylacetyl)amino]-2-(2-naphthyl)ethane], the Ki was 15.8 nM.

For the molecule `CN(Cc1ccccc1)C(=O)C(Cc1ccc2ccccc2c1)NC(=O)C1(N(C)C(=O)c2cn(C)c3ccccc23)CCCCC1` (centres unmarked) [xii, N-[N(1(methyl)indol-3-yl-carbonyl)-N-methyl-1-amino-cyclohexancarbonyl]-2 naphthylalanine-N-methyl-N-benzylamide], the Ki was 15.8 nM.

In the case of `CN(Cc1ccccc1)C(=O)C(Cc1ccc2ccccc2c1)NC(=O)C1(NC(=O)c2c[nH]c3ccccc23)CCOCC1` (centres unmarked) [xxvii, N-[N(1(H)indol-3-yl-carbonyl)-4-amino-tetrahydropyran-4-carbonyl]-2-naphthylalanine-N-methyl-N-benzylamide], the Ki was 6.31 nM.

With `CN(C(=O)Cc1ccccc1)C(Cc1ccc2ccccc2c1)NC(=O)C1(NC(=O)c2c[nH]c3ccccc23)CCNCC1` (centres unmarked) [xxviii, 1-N-[N(1(H)indol-3-yl-carbonyl)-4-amino-piperidin-4-carbonyl]-amino-1-[N(methyl)-N-(2-phenylacetyl)]amino-2-(2-naphtyl)ethane], the Ki is 12.6 nM.
